# Reference: US8283361B2 (AstraZeneca AB, priority 2008, dated 2012)
# Target: S. aureus GyrB ATPase (Staphylococcus aureus, UniProt P0A0K8)
# Test: biochemical
# Details: compound at 1 μM; one value per test if tested more than once; 1 µM
# Procedure: S. aureus GyrB ATPase Inhibition Activity: Compounds may be tested for inhibition of S. aureus GyrB ATPase activity using an ammonium molybdate/malachite green-based phosphate detection assay (Lanzetta, P. A., L. J. Alvarez, P. S. Reinach, and O. A. Candia, 1979, 100: 95-97). Assays can be performed in multiwell plates in 30 μl reactions containing: 50 mM Hepes buffer pH 7.5, 75 mM ammonium acetate, 8.0 mM magnesium chloride, 0.5 mM ethylenediaminetetraacetic acid, 5% glycerol, 1.0 mM 1,4-Dithio-DL-threitol, 200 nM bovine serum albumin, 1.0 μg/m1 sheared salmon sperm DNA, 250 pM E. coli GyrA, 250 pM S. aureus GyrB, 250 μM ATP, and compound in dimethylsulfoxide. Reactions can be quenched with 30 μl of ammonium molybdate/malachite green detection reagent containing 1.2 mM malachite green hydrochloride, 8.5 mM ammonium molybdate tetrahydrate, and 1 M hydrochloric acid. […] An IC50 measurement of compound potency for each compound can be determined from reactions performed in the presence of 10 different compound concentrations.
# S. aureus GyrB ATPase, sequence (P0A0K8 whole entry): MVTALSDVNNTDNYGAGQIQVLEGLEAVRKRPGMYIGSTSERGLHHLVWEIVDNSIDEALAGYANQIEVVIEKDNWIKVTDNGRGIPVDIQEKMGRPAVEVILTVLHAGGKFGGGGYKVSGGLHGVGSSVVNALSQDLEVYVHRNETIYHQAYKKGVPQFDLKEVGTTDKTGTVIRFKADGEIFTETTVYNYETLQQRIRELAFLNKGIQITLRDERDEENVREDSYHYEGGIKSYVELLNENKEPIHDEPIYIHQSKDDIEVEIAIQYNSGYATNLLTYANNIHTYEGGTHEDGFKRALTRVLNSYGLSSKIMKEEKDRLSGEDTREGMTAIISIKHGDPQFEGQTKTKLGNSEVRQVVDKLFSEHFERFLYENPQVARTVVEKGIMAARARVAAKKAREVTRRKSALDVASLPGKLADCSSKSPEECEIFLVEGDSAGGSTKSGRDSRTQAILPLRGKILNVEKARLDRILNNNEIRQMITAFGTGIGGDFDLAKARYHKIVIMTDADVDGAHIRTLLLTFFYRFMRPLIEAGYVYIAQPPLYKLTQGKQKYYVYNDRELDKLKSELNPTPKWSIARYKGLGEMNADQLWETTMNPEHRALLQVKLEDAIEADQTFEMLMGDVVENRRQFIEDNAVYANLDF
# S. aureus GyrB ATPase, sequence (P0AES4 whole entry, further chain): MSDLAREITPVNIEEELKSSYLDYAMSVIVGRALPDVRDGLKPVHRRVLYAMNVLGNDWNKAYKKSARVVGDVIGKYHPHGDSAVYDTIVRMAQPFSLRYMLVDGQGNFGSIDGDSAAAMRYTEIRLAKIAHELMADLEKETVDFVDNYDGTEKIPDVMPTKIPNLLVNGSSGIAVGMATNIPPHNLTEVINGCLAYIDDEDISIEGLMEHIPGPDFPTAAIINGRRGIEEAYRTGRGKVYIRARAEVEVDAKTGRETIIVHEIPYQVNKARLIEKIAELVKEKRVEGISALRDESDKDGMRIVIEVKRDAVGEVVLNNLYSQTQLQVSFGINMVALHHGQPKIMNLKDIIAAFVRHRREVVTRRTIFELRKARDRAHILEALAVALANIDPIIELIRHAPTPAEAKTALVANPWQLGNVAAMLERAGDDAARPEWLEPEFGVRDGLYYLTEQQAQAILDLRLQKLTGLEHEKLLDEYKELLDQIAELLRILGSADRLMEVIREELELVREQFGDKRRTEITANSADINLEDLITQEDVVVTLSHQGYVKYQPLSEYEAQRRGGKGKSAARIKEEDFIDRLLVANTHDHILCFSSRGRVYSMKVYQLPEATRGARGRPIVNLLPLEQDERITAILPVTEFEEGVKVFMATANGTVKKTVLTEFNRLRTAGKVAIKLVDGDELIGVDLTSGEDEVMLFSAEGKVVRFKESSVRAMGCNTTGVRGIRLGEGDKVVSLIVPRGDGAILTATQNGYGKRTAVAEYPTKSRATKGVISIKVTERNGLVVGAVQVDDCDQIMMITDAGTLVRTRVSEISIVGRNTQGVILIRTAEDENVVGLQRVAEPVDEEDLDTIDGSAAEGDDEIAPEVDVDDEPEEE
row,Structure (SMILES),% Inhibition of S. aureus GyrB ATPase
1,"CCNC(=O)Nc1cc(-c2nc(C(F)(F)F)cs2)c(-c2ccc3c(c2)c(=O)c(C(=O)O)cn3CCOC)cn1 [Example 1, 6-(6-(3-Ethylureido)-4-(4-(trifluoromethyl)thiazol-2-yl)pyridin-3-yl)-1-(2-methoxyethyl)-4-oxo-1,4-dihydroquinoline-3-carboxylic acid]",104%

# Same assay, conditions: compound at 1 μM; one value per test if tested more than once; read-out: % Inhibition of S. aureus GyrB ATPase
row,Structure (SMILES),inhibition at 1 µM
1,"CCNC(=O)Nc1cc(-c2nc(C(F)(F)F)cs2)c(-c2ccc3c(c2)c(=O)c(C(=O)O)cn3[C@@H]2CCCC[C@@H]2O)cn1 (relative stereo) [Example 276, 6-(6-(3-ethylureido)-4-(4-(trifluoromethyl)thiazol-2-yl)pyridin-3-yl)-1-(cis-2-hydroxycyclohexyl)-4-oxo-1,4-dihydroquinoline-3-carboxylic acid]",106%
2,"CCNC(=O)Nc1cc(-c2nc(C(F)(F)F)cs2)c(-c2ccc3c(c2)c(=O)c(C(=O)O)cn3[C@H]2CNC[C@@H]2O)cn1 (relative stereo) [Example 310, trans 6-(6-(3-ethylureido)-4-(4-(trifluoromethyl)thiazol-2-yl)pyridin-3-yl)-1-(4-hydroxypyrrolidin-3-yl)-4-oxo-1,4-dihydroquinoline-3-carboxylic acid]",106%
3,"CCNC(=O)Nc1cc(-c2nc(C(F)(F)F)cs2)c(-c2ccc3c(c2)c(=O)c(C(=O)O)cn3CCOC)cn1 [Example 1, 6-(6-(3-Ethylureido)-4-(4-(trifluoromethyl)thiazol-2-yl)pyridin-3-yl)-1-(2-methoxyethyl)-4-oxo-1,4-dihydroquinoline-3-carboxylic acid]",100%
4,"CCNC(=O)Nc1cc(-c2nc(-c3ccccc3)cs2)c(-c2ccc3c(c2)c(=O)c(C(=O)O)cn3CCOC)cn1 [Example 2, 6-(6-(3-ethylureido)-4-(4-phenylthiazol-2-yl)pyridin-3-yl)-1-(2-methoxyethyl)-4-oxo-1,4-dihydroquinoline-3-carboxylic acid]",100%
5,"CCNC(=O)Nc1cc(-c2nc(C(F)(F)F)cs2)c(-c2ccc3c(c2)c(=O)c(C(=O)O)cn3C(COC)COC)cn1 [Example 4, 1-(1,3-dimethoxypropan-2-yl)-6-(6-(3-ethylureido)-4-(4-(trifluoromethyl)thiazol-2-yl)pyridin-3-yl)-4-oxo-1,4-dihydroquinoline-3-carboxylic acid]",98%
6,"CCNC(=O)Nc1cc(-c2nc(C(F)(F)F)cs2)c(-c2ccc3c(c2)c(=O)c(C(=O)O)cn3CC)cn1 [Example 10, 1-ethyl-6-(6-(3-ethylureido)-4-(4-trifluoromethylthiazol-2-yl)pyridin-3-yl)-4-oxo-1,4-dihydroquinoline-3-carboxylic acid]",99%
7,"CCNC(=O)Nc1cc(-c2nc(C(F)(F)F)cs2)c(-c2cc3c4c(c2)c(=O)c(C(=O)O)cn4CCO3)cn1 [Example 11, 9-(6-(3-ethylureido)-4-(4-trifluoromethylthiazol-2-yl)pyridin-3-yl)-7-oxo-3,7-dihydro-2H-[1,4]oxazino[2,3,4-ij]quinoline-6-carboxylic acid]",102%
8,"CCNC(=O)Nc1cc(-c2nc(C(F)(F)F)cs2)c(-c2ccc3c(c2)c(=O)c(C(=O)O)cn3CCCOC)cn1 [Example 12, 6-(6-(3-ethylureido)-4-(4-(trifluoromethyl)thiazol-2-yl)pyridin-3-yl)-1-(3-methoxypropyl)-4-oxo-1,4-dihydroquinoline-3-carboxylic acid]",93%
9,"CCNC(=O)Nc1cc(-c2nc(CC)cs2)c(-c2ccc3c(c2)c(=O)c(C(=O)O)cn3CC)cn1 [Example 13, 1-ethyl-6-(6-(3-ethylureido)-4-(4-ethylthiazol-2-yl)pyridin-3-yl)-4-oxo-1,4-dihydroquinoline-3-carboxylic acid]",98%
10,"CCNC(=O)Nc1cc(-c2nc(-c3ccccc3)cs2)c(-c2ccc3c(=O)c(C(=O)O)cn(CC)c3c2)cn1 [Example 15, 1-ethyl-7-(6-(3-ethylureido)-4-(4-phenylthiazol-2-yl)pyridin-3-yl)-4-oxo-1,4-dihydroquinoline-3-carboxylic acid]",101%
11,"CCNC(=O)Nc1cc(-c2nc(-c3ccccc3)cs2)c(-c2ccc3c(c2)c(=O)c(C(=O)O)cn3CC)cn1 [Example 16, 1-ethyl-6-(6-(3-ethylureido)-4-(4-phenylthiazol-2-yl)pyridin-3-yl)-4-oxo-1,4-dihydroquinoline-3-carboxylic acid]",101%
12,"CCNC(=O)Nc1cc(-c2nc(-c3ccccc3)cs2)c(-c2cc3c4c(c2)c(=O)c(C(=O)O)cn4CCO3)cn1 [Example 17, 9-(6-(3-ethylureido)-4-(4-phenylthiazol-2-yl)pyridin-3-yl)-7-oxo-3,7-dihydro-2H-[1,4]oxazino[2,3,4-ij]quinoline-6-carboxylic acid]",103%
13,"CCNC(=O)Nc1cc(-c2nc(C(F)(F)F)cs2)c(-c2ccc3c(c2)c(=O)c(C(=O)O)cn3CCN(C)C)cn1 [Example 18, 1-(2-(dimethylamino)ethyl)-6-(6-(3-ethylureido)-4-(4-(trifluoromethyl)thiazol-2-yl)pyridin-3-yl)-4-oxo-1,4-dihydroquinoline-3-carboxylic acid]",98%
14,"CCNC(=O)Nc1cc(-c2nc(C(F)(F)F)cs2)c(-c2ccc3c(c2)c(=O)c(C(=O)O)cn3CCO)cn1 [Example 19, 6-(6-(3-Ethylureido)-4-(4-(trifluoromethyl)thiazol-2-yl)pyridin-3-yl)-1-(2-hydroxyethyl)-4-oxo-1,4-dihydroquinoline-3-carboxylic acid]",98%
15,"CCNC(=O)Nc1cc(-c2nc(C(F)(F)F)cs2)c(-c2ccc3c(c2)c(=O)c(C(=O)O)cn3C2CC2)cn1 [Example 20, 1-Cyclopropyl-6-(6-(3-ethylureido)-4-(4-(trifluoromethyl)thiazol-2-yl)pyridin-3-yl)-4-oxo-1,4-dihydroquinoline-3-carboxylic acid]",96%
16,"CCNC(=O)Nc1cc(-c2nc(C(F)(F)F)cs2)c(-c2ccc3c(c2)c(=O)c(C(=O)O)cn3C(C)C)cn1 [Example 21, 6-(6-(3-Ethylureido)-4-(4-(trifluoromethyl)thiazol-2-yl)pyridin-3-yl)-1-isopropyl-4-oxo-1,4-dihydroquinoline-3-carboxylic acid]",98%
17,"CCNC(=O)Nc1cc(-c2nc(C(F)(F)F)cs2)c(-c2ccc3c(=O)c(C(=O)O)cn(C)c3c2)cn1 [Example 22, 7-(6-(3-Ethylureido)-4(4-(trifluoromethyl)thiazol-2-yl)pyridin-3-yl)-1-methyl-4-oxo-1,4-dihydroquinoline-3-carboxylic acid]",99%
18,"CCNC(=O)Nc1cc(-c2nc(C(F)(F)F)cs2)c(-c2ccc3c(=O)c(C(=O)O)c[nH]c3c2)cn1 [Example 23, 7-(6-(3-Ethylureido)-4-(4-(trifluoromethyl)thiazol-2-yl)pyridin-3-yl)-4-oxo-1,4-dihydroquinoline-3-carboxylic acid]",101%
19,"CCNC(=O)Nc1cc(-c2nc(C(F)(F)F)cs2)c(-c2ccc3c(c2)c(=O)c(C(=O)O)cn3C2CN(C)C2)cn1 [Example 24, 6-(6-(3-ethylureido)-4-(4-(trifluoromethyl)thiazol-2-yl)pyridin-3-yl)-1-(1-methylazetidin-3-yl)-4-oxo-1,4-dihydroquinoline-3-carboxylic acid]",99%
20,"CCNC(=O)Nc1cc(-c2nc(C(F)(F)F)cs2)c(-c2ccc3c(=O)c(C(=O)O)cn(CCC(C)C)c3c2)cn1 [Example 25, 7-{6-[(ethylcarbamoyl)amino]-4-[4-(trifluoromethyl)-1,3-thiazol-2-yl]pyridin-3-yl}-1-(3-methylbutyl)-4-oxo-1,4-dihydroquinoline-3-carboxylic acid]",99%
21,"CCCn1cc(C(=O)O)c(=O)c2ccc(-c3cnc(NC(=O)NCC)cc3-c3nc(C(F)(F)F)cs3)cc21 [Example 27, 7-{6-[(ethylcarbamoyl)amino]-4-[4-(trifluoromethyl)-1,3-thiazol-2-yl]pyridin-3-yl}-4-oxo-1-propyl-1,4-dihydroquinoline-3-carboxylic acid]",99%
22,"CCNC(=O)Nc1cc(-c2nc(C(F)(F)F)cs2)c(-c2ccc3c(=O)c(C(=O)O)cn(Cc4ccccc4)c3c2)cn1 [Example 28, 1-benzyl-7-{6-[(ethylcarbamoyl)amino]-4-[4-(trifluoromethyl)-1,3-thiazol-2-yl]pyridin-3-yl}-4-oxo-1,4-dihydroquinoline-3-carboxylic acid]",97%
23,"CCNC(=O)Nc1cc(-c2nc(C(F)(F)F)cs2)c(-c2ccc3c(=O)c(C(=O)O)cn(CCO)c3c2)cn1 [Example 30, 7-{6-[(ethylcarbamoyl)amino]-4-[4-(trifluoromethyl)-1,3-thiazol-2-yl]pyridin-3-yl}-1-(2-hydroxyethyl)-4-oxo-1,4-dihydroquinoline-3-carboxylic acid]",95%
24,"CCNC(=O)Nc1cc(-c2nc(C(F)(F)F)cs2)c(-c2ccc3c(=O)c(C(=O)O)cn(CC4CC4)c3c2)cn1 [Example 32, 1-(cyclopropylmethyl)-7-{6-[(ethylcarbamoyl)amino]-4-[4-(trifluoromethyl)-1,3-thiazol-2-yl]pyridin-3-yl}-4-oxo-1,4-dihydroquinoline-3-carboxylic acid]",98%

# Same assay, conditions: read-out: % Inhibition of S. aureus GyrB ATPase
row,Structure (SMILES),inhibition at 1 µM
1,"CCNC(=O)Nc1cc(-c2nc(C(F)(F)F)cs2)c(-c2ccc3c(c2)c(=O)c(C(=O)O)cn3CCCN2CCCC2=O)cn1 [Example 7, 6-(6-(3-ethylureido)-4-(4-(trifluoromethyl)thiazol-2-yl)pyridin-3-yl)-4-oxo-1-(3-(2-oxopyrrolidin-1-yl)propyl)-1,4-dihydroquinoline-3-carboxylic acid sodium]",100%
